Source: patent publication US20110263566A1 (priority 2008, published 2011)
pIC50: −log10 of the molar value.

Key:
Assay in all cases: cells
[1] = tested on: HT-1197 cells; conditions: Homo sapiens, HT1197, 72 h, read-out: IC50 (microM) (HT1197)
Protocol: (§1) To evaluate the expression status of PBK in several cell lines, western blot analysis was performed using crude cell lysate collected from those cells.
(§2) 100 micro-L of cell suspension was seeded onto 96-well microtiter plate (ViewPlate-96FTC, PerkinElmer). […] Cellular growth was determined using Cell Counting Kit-8 (DOJINDO) at 72 hours after the exposure of the candidate inhibitors. […] Accurate IC50 values were calculated as described previously.

[2] = tested on: T47D cells; conditions: Homo sapiens, 72 h, read-out: IC50 (microM) (T47D)
Protocol: as §1, §2

[3] = tested on: BT-549 cells; conditions: Homo sapiens, BT-549, 72 h, read-out: IC50 (microM) (BT549)
Protocol: as §1, §2

O=C(NCC1CCCNC1)c1ccc(O)c2[nH]c(C3CC3)nc12 (stereo not drawn) [Example 6, 2-Cyclopropyl-4-hydroxy-N-(piperidin-3-yl-methyl)-1H-benzo[d]imidazole-7-carboxamide]
pIC50 [1]: < 4.00 | pIC50 [2]: 4.26 | pIC50 [3]: 4.52

O=C(NCC1CCCCN1)c1ccc(O)c2[nH]c(C3CC3)nc12 (stereo not drawn) [Example 7, 2-Cyclopropyl-4-hydroxy-N-(piperidin-2-ylmethyl)-1H-benzo[d]imidazole-7-carboxamide]
pIC50 [1]: < 4.00 | pIC50 [2]: 4.96 | pIC50 [3]: 5.02

O=C(N[C@H]1CCCNC1)c1ccc(O)c2[nH]c(C3CC3)nc12 [Example 9, (S)-2-cyclopropyl-4-hydroxy-N-(piperidin-3-yl)-1H-benzo[d]imidazole-7-carboxamide]
pIC50 [1]: 5.15 | pIC50 [2]: 5.82 | pIC50 [3]: 6.14

O=C(NC1CCNCC1)c1ccc(O)c2[nH]c(C3CC3)nc12 [Example 10, 2-cyclopropyl-4-hydroxy-N-(piperidin-4-yl)-1H-benzo[d]imidazole-7-carboxamide]
pIC50 [1]: < 4.00 | pIC50 [2]: 4.72 | pIC50 [3]: 4.70

O=C(NC1CCCNC1)c1ccc(O)c2[nH]c(C3CC3)nc12 (stereo not drawn) [Example 11, 2-cyclopropyl-4-hydroxy-N-(piperidin-3-yl)-1H-benzo[d]imidazole-7-carboxamide]
pIC50 [1]: 4.36 | pIC50 [2]: 5.49 | pIC50 [3]: 5.80

O=C(NC1CCNC1)c1ccc(O)c2[nH]c(C3CC3)nc12 (stereo not drawn) [Example 12, 2-cyclopropyl-4-hydroxy-N-(pyrrolidin-3-yl)-1H-benzo[d]imidazole-7-carboxamide]
pIC50 [1]: < 4.00 | pIC50 [2]: 4.24 | pIC50 [3]: 4.33

O=C(NCC1CCCNC1)c1ccc(O)c2[nH]c(C3CCCC3)nc12 (stereo not drawn) [Example 15, 2-Cyclopentyl-4-hydroxy-N-(piperidin-3-ylmethyl)-1H-benzo[d]imidazole-7-carboxamide]
pIC50 [1]: < 4.00 | pIC50 [2]: 4.68 | pIC50 [3]: 4.60

O=C(N[C@H]1CCCNC1)c1ccc(O)c2[nH]c(C3CCCC3)nc12 [Example 16, (S)-2-Cyclopentyl-4-hydroxy-N-(piperidin-3-yl)-1H-benzo[d]imidazole-7-carboxamide]
pIC50 [1]: 4.72 | pIC50 [2]: 5.59 | pIC50 [3]: 6.43

O=C(NCC1CCCCN1)c1ccc(O)c2[nH]c(-c3ccccc3)nc12 (stereo not drawn) [Example 18, 4-Hydroxy-2-phenyl-N-(piperidin-2-ylmethyl)-1H-benzo[d]imidazole-7-carboxamide]
pIC50 [1]: 4.01 | pIC50 [2]: 4.82 | pIC50 [3]: 4.51

O=C(NC1CCCNC1)c1ccc(O)c2[nH]c(-c3cccs3)nc12 (stereo not drawn) [Example 35, 7-Hydroxy-N-(piperidin-3-yl)-2-(thiophen-2-yl)-1H-benzo[d]imidazole-4-carboxamide]
pIC50 [1]: 4.31 | pIC50 [2]: 6.09 | pIC50 [3]: 6.11

O=C(N[C@@H]1CCCNC1)c1ccc(O)c2[nH]c(-c3cccs3)nc12 [Example 37, (R)-7-Hydroxy-N-(piperidin-3-yl)-2-(thiophen-2-yl)-1H-benzo[d]imidazole-4-carboxamide]
pIC50 [1]: < 4.00 | pIC50 [2]: 4.96 | pIC50 [3]: 4.70

O=C(N[C@H]1CCCNC1)c1ccc(O)c2[nH]c(-c3cccs3)nc12 [Example 38, (S)-7-Hydroxy-N-(piperidin-3-yl)-2-(thiophen-2-yl)-1H-benzo[d]imidazole-4-carboxamide]
pIC50 [1]: 4.48 | pIC50 [2]: 6.44 | pIC50 [3]: 6.34

O=C(NCC1CCCNC1)c1ccc(O)c2[nH]c(-c3cccs3)nc12 (stereo not drawn) [Example 39, 7-Hydroxy-N-(piperidin-3-ylmethyl)-2-(thiophen-2-yl)-1H-benzo[d]imidazole-4-carboxamide]
pIC50 [1]: < 4.00 | pIC50 [2]: 5.07 | pIC50 [3]: 4.82

O=C(NC1CCNCC1)c1ccc(O)c2[nH]c(-c3cccs3)nc12 [Example 40, 7-Hydroxy-N-(piperidin-4-yl)-2-(thiophen-2-yl)-1H-benzo[d]imidazole-4-carboxamide]
pIC50 [1]: < 4.00 | pIC50 [2]: 4.89 | pIC50 [3]: 4.14

CN1CCCC(NC(=O)c2ccc(O)c3[nH]c(-c4cccs4)nc23)C1 (stereo not drawn) [Example 41, 7-Hydroxy-N-(1-methylpiperidin-3-yl)-2-(thiophen-2-yl)-1H-benzo[d]imidazole-4-carboxamide]
pIC50 [1]: 4.62 | pIC50 [2]: 5.01 | pIC50 [3]: 5.09

O=C(NC1CCNC1)c1ccc(O)c2[nH]c(-c3cccs3)nc12 (stereo not drawn) [Example 44, 7-Hydroxy-N-(pyrrolidin-3-yl)-2-(thiophen-2-yl)-1H-benzo[d]imidazole-4-carboxamide]
pIC50 [1]: < 4.00 | pIC50 [2]: 4.70 | pIC50 [3]: 4.82

O=C(NCC1CCCCN1)c1ccc(O)c2[nH]c(-c3cccs3)nc12 (stereo not drawn) [Example 45, 7-Hydroxy-N-(piperidin-2-ylmethyl)-2-(thiophen-2-yl)-1H-benzo[d]imidazole-4-carboxamide]
pIC50 [1]: < 4.00 | pIC50 [2]: 5.11 | pIC50 [3]: 4.54

N[C@H]1CC[C@H](NC(=O)c2ccc(O)c3[nH]c(-c4cccs4)nc23)CC1 [Example 47, N-(4-Aminocyclohexyl)-7-hydroxy-2-(thiophen-2-yl)-1H-benzo[d]imidazole-4-carboxamide]
pIC50 [1]: 4.24 | pIC50 [2]: 5.21 | pIC50 [3]: 5.28

O=C(NCC1CCCNC1)c1ccc(O)c2[nH]c(C3CC4CCC3C4)nc12 (stereo not drawn) [Example 48, 2-(Bicyclo[2.2.1]heptan-2-yl)-7-hydroxy-N-(piperidin-3-ylmethyl)-1H-benzo[d]imidazole-4-carboxamide]
pIC50 [1]: ≤ 4.00 | pIC50 [2]: 4.31 | pIC50 [3]: 4.70

O=C(NC1CCCNC1)c1ccc(O)c2[nH]c(C3CC4CCC3C4)nc12 (stereo not drawn) [Example 49, 2-(Bicyclo[2.2.1]heptan-2-yl)-7-hydroxy-N-(piperidin-3-yl)-1H-benzo[d]imidazole-4-carboxamide]
pIC50 [1]: 4.85 | pIC50 [2]: 5.39 | pIC50 [3]: 6.19

O=C(N[C@H]1CCCNC1)c1ccc(O)c2[nH]c(-c3ccc(Br)s3)nc12 [Example 51, (S)-2-(5-bromothiophen-2-yl)-7-hydroxy-N-(piperidin-3-yl)-1H-benzo[d]imidazole-4-carboxamide]
pIC50 [1]: 5.24 | pIC50 [2]: 6.85 | pIC50 [3]: 6.74

O=C(N[C@H]1CCCNC1)c1ccc(O)c2[nH]c(C3CC4CCC3C4)nc12 (stereo partly drawn) [Example 52, 2-(Bicyclo[2.2.1]heptan-2-yl)-7-hydroxy-N-((S)-piperidin-3-yl)-1H-benzo[d]imidazole-4-carboxamide]
pIC50 [1]: 4.72 | pIC50 [2]: 5.64 | pIC50 [3]: 6.37

NC12CC3CC(C1)CC(NC(=O)c1ccc(O)c4[nH]c(C5CC6CCC5C6)nc14)(C3)C2 (stereo not drawn) [Example 53]
pIC50 [1]: 4.62 | pIC50 [2]: 5.28 | pIC50 [3]: 5.34

NC12CC3CC(C1)CC(NC(=O)c1ccc(O)c4[nH]c(-c5cccs5)nc14)(C3)C2 [Example 54, 2-(Thiophene-2-yl)-7-hydroxy-N-(adamantate-3-ylamino)-1H-benzo[d]imidazole-4-carboxamide]
pIC50 [1]: 5.00 | pIC50 [2]: 5.80 | pIC50 [3]: 5.48

NC1CCCC(NC(=O)c2ccc(O)c3[nH]c(C4CC5CCC4C5)nc23)C1 (stereo not drawn) [Example 55, N-(3-Aminocyclohexyl)-2-(bicyclo[2.2.1]heptan-2-yl)-7-hydroxy-1H-benzo[d]imidazole-4-carboxamide]
pIC50 [1]: 4.13 | pIC50 [2]: 5.04 | pIC50 [3]: 5.54

N[C@H]1CC[C@@H](CNC(=O)c2ccc(O)c3[nH]c(C4CC5CCC4C5)nc23)CC1 (stereo partly drawn) [Example 56, N-{[(cis)-4-Aminocyclohexyl]methyl}-2-(bicyclo[2.2.1]heptan-2-yl)-7-hydroxy-1H-benzo[d]imidazole-4-carboxamide]
pIC50 [1]: 4.21 | pIC50 [2]: 4.52 | pIC50 [3]: 5.00

O=C(N[C@H]1CCCNC1)c1ccc(O)c2[nH]c(-c3ccc(N4CCNCC4)s3)nc12 [Example 57, (S)-7-hydroxy-2-(5-(piperazin-1-yl)thiophen-2-yl)-N-(piperidin-3-yl)-1H-benzo[d]imidazole-4-carboxamide]
pIC50 [1]: 4.48 | pIC50 [2]: 5.96 | pIC50 [3]: 5.96

O=C(NC[C@@H]1CCCNC1)c1ccc(O)c2[nH]c(Cc3cccs3)nc12 [Example 58, (R)-7-hydroxy-N-(piperidin-3-ylmethyl)-2-(thiophen-2-ylmethyl)-1H-benzo[d]imidazole-4-carboxamide]
pIC50 [1]: 4.68 | pIC50 [2]: 4.62 | pIC50 [3]: 4.89

O=C(N[C@H]1CCCNC1)c1ccc(O)c2[nH]c(Cc3cccs3)nc12 [Example 59, (S)-7-hydroxy-N-(piperidin-3-yl)-2-(thiophen-2-ylmethyl)-1H-benzo[d]imidazole-4-carboxamide]
pIC50 [1]: 4.12 | pIC50 [2]: 4.96 | pIC50 [3]: 5.54

O=C(NC[C@H]1CCCNC1)c1ccc(O)c2[nH]c(Cc3cccs3)nc12 [Example 60, (S)-7-hydroxy-N-(piperidin-3-ylmethyl)-2-(thiophen-2-ylmethyl)-1H-benzo[d]imidazole-4-carboxamide]
pIC50 [1]: 4.48 | pIC50 [2]: 4.38 | pIC50 [3]: 4.31
